ChEMBL document CHEMBL1201862, “PubChem BioAssay data set” (2004)
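Assay format: 96-well plates, 48-hour exposure. GI50 marks 50% less growth.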 The source made the active and inactive calls. Rule as the data show it: active = GI50 up to about 1.1 µM and inactive = higher.

Columns and labels:
Test in all cases: growth of human tumour cells (NCI), 48 h
786-0 = tested on: 786-0
CCRF-CEM = tested on: CCRF-CEM
DU-145 = tested on: DU-145
HCC 2998 = tested on: HCC 2998
HL-60 = tested on: HL-60
Hs-578T = tested on: Hs-578T
KM12 = tested on: KM12
LOX IMVI = tested on: LOX IMVI
MDA-MB-435 = tested on: MDA-MB-435
MDA-N = tested on: MDA-N
MOLT-4 = tested on: MOLT-4
Malme-3M = tested on: Malme-3M
NCI-H522 = tested on: NCI-H522
OVCAR-8 = tested on: OVCAR-8
SF-268 = tested on: SF-268
SF-295 = tested on: SF-295
SF-539 = tested on: SF-539
SK-MEL-2 = tested on: SK-MEL-2
SN12C = tested on: SN12C
T47D = tested on: T47D

Q: For COc1cc2cc(C(=O)N3CC(CCl)c4ccccc43)[nH]c2c(OC)c1OC (stereo not given), which GI50 (786-0) is on record?
A: 97.5 µM (inactive)

Q: And the GI50 (CCRF-CEM)?
A: > 36.6 µM (inactive)

Q: And the GI50 (DU-145)?
A: 62.1 µM (inactive)

Q: What about the GI50 (HCC 2998) of the same compound?
A: 17.2 µM (inactive)

Q: What about the GI50 (HL-60) of the same compound?
A: 16.3 µM (inactive)

Q: And the GI50 (Hs-578T)?
A: > 100 µM (inactive)

Q: And the GI50 (KM12)?
A: 23.5 µM (inactive)

Q: And the GI50 (LOX IMVI)?
A: 44.8 µM (inactive)

Q: What about the GI50 (MDA-MB-435) of the same compound?
A: 19.2 µM (inactive)

Q: And the GI50 (MDA-N)?
A: 40.5 µM (inactive)

Q: And the GI50 (MOLT-4)?
A: 13.4 µM (inactive)

Q: What about the GI50 (Malme-3M) of the same compound?
A: 36.5 µM (inactive)

Q: What about the GI50 (NCI-H522) of the same compound?
A: 17.2 µM (inactive)

Q: What about the GI50 (OVCAR-8) of the same compound?
A: 81.8 µM (inactive)

Q: What about the GI50 (SF-268) of the same compound?
A: > 100 µM (inactive)

Q: What about the GI50 (SF-295) of the same compound?
A: 70.3 µM (inactive)

Q: And the GI50 (SF-539)?
A: > 100 µM (inactive)

Q: What about the GI50 (SK-MEL-2) of the same compound?
A: 62.5 µM (inactive)

Q: What about the GI50 (SN12C) of the same compound?
A: 5.6 µM (inactive)

Q: What about the GI50 (T47D) of the same compound?
A: 13.8 µM (inactive)

Q: What does the source list for Cc1cccc2c1NC(=O)/C2=N\Nc1ccccc1[N+](=O)[O-]?
A: GI50 (786-0): 4.27 µM (inactive); GI50 (CCRF-CEM): 6.3 µM (inactive); GI50 (DU-145): 17.7 µM (inactive); GI50 (HCC 2998): 7.11 µM (inactive); GI50 (HL-60): 78.5 µM (inactive); GI50 (Hs-578T): 4.85 µM (inactive); GI50 (KM12): 6.93 µM (inactive); GI50 (LOX IMVI): 3.64 µM (inactive); GI50 (MDA-MB-435): 22.6 µM (inactive); GI50 (MDA-N): 20.1 µM (inactive); GI50 (MOLT-4): 21.2 µM (inactive); GI50 (Malme-3M): 9.64 µM (inactive); GI50 (NCI-H522): 0.871 µM (active); GI50 (OVCAR-8): 3.85 µM (inactive); GI50 (SF-268): 6.04 µM (inactive); GI50 (SF-295): 4.24 µM (inactive); GI50 (SF-539): 2.12 µM (inactive); GI50 (SK-MEL-2): 16.7 µM (inactive); GI50 (SN12C): 9.89 µM (inactive); GI50 (T47D): 8.83 µM (inactive)

Q: With N/C(=N\O)NCCN1CCCCCCC1 as the compound, how does the GI50 (786-0) read?
A: > 100 µM (inactive)

Q: And the GI50 (CCRF-CEM)?
A: > 100 µM (inactive)

Q: And the GI50 (DU-145)?
A: > 100 µM (inactive)

Q: And the GI50 (HCC 2998)?
A: > 100 µM (inactive)

Q: What about the GI50 (HL-60) of the same compound?
A: > 100 µM (inactive)

Q: And the GI50 (Hs-578T)?
A: > 100 µM (inactive)

Q: What about the GI50 (KM12) of the same compound?
A: > 100 µM (inactive)

Q: And the GI50 (LOX IMVI)?
A: > 100 µM (inactive)

Q: And the GI50 (MDA-MB-435)?
A: > 100 µM (inactive)

Q: And the GI50 (MDA-N)?
A: > 100 µM (inactive)

Q: What about the GI50 (MOLT-4) of the same compound?
A: > 100 µM (inactive)

Q: What about the GI50 (Malme-3M) of the same compound?
A: > 100 µM (inactive)

Q: And the GI50 (NCI-H522)?
A: > 100 µM (inactive)

Q: What about the GI50 (OVCAR-8) of the same compound?
A: 42 µM (inactive)

Q: And the GI50 (SF-268)?
A: > 100 µM (inactive)

Q: What about the GI50 (SF-295) of the same compound?
A: > 100 µM (inactive)

Q: And the GI50 (SF-539)?
A: > 100 µM (inactive)

Q: What about the GI50 (SK-MEL-2) of the same compound?
A: > 100 µM (inactive)

Q: What about the GI50 (SN12C) of the same compound?
A: 37.2 µM (inactive)

Q: And the GI50 (T47D)?
A: 80.9 µM (inactive)

Q: How did the GI50 (786-0) turn out when COc1cc2cc(C(=O)N3CC(CCl)c4c3cc([N+](C)(C)Cc3ccc([N+](=O)[O-])n3C)c3ccccc43)[nH]c2c(OC)c1OC (stereo not given) was run?
A: 1.33 µM (inactive)

Q: And the GI50 (CCRF-CEM)?
A: 1.77 µM (inactive)

Q: And the GI50 (DU-145)?
A: 0.935 µM (active)

Q: What about the GI50 (HCC 2998) of the same compound?
A: 0.3 µM (active)

Q: And the GI50 (HL-60)?
A: 1.15 µM (inactive)

Q: And the GI50 (Hs-578T)?
A: 6.76 µM (inactive)

Q: What about the GI50 (KM12) of the same compound?
A: 2.14 µM (inactive)

Q: What about the GI50 (LOX IMVI) of the same compound?
A: 2.31 µM (inactive)

Q: And the GI50 (MDA-MB-435)?
A: 3.79 µM (inactive)

Q: What about the GI50 (MDA-N) of the same compound?
A: 2.13 µM (inactive)

Q: What about the GI50 (MOLT-4) of the same compound?
A: 1.93 µM (inactive)

Q: And the GI50 (Malme-3M)?
A: 3.79 µM (inactive)

Q: And the GI50 (NCI-H522)?
A: 0.0638 µM (active)

Q: And the GI50 (OVCAR-8)?
A: 1.38 µM (inactive)

Q: What about the GI50 (SF-268) of the same compound?
A: 2.62 µM (inactive)

Q: And the GI50 (SF-295)?
A: 1.31 µM (inactive)

Q: What about the GI50 (SF-539) of the same compound?
A: 2.02 µM (inactive)

Q: What about the GI50 (SK-MEL-2) of the same compound?
A: 0.374 µM (active)

Q: And the GI50 (SN12C)?
A: 4.54 µM (inactive)

Q: What about the GI50 (T47D) of the same compound?
A: 3.23 µM (inactive)

Q: Which results are given for C[C@]12C=CC(=O)C=C1CC[C@@H]1[C@@H]2C(=O)C[C@@]2(C)[C@H]1CC[C@]2(O)C(=O)CO [PREDNISONE]?
A: GI50 (786-0): > 100 µM (inactive); GI50 (CCRF-CEM): > 100 µM (inactive); GI50 (DU-145): > 100 µM (inactive); GI50 (HCC 2998): > 100 µM (inactive); GI50 (HL-60): > 100 µM (inactive); GI50 (Hs-578T): > 100 µM (inactive); GI50 (KM12): > 100 µM (inactive); GI50 (LOX IMVI): > 100 µM (inactive); GI50 (MDA-MB-435): > 100 µM (inactive); GI50 (MDA-N): > 100 µM (inactive); GI50 (MOLT-4): > 100 µM (inactive); GI50 (Malme-3M): > 100 µM (inactive); GI50 (NCI-H522): > 100 µM (inactive); GI50 (OVCAR-8): > 100 µM (inactive); GI50 (SF-268): > 100 µM (inactive); GI50 (SF-295): > 100 µM (inactive); GI50 (SF-539): > 100 µM (inactive); GI50 (SK-MEL-2): > 100 µM (inactive); GI50 (SN12C): > 100 µM (inactive); GI50 (T47D): > 100 µM (inactive)
